From paper PMC12040169 (PLOS Biology, 2025)

Assay: in vitro
Settings: human, hela cells, % viability

SMILES | viability at 28.5 h, 10 µM [%] | viability at 28.5 h, 10 µM (bulk resorufin, single well) [%]
O=CN1CCc2c([nH]c3ccc(F)cc23)C12CCN(Cc1cccc(Oc3ccc(F)cc3)c1)CC2 [CBK040388] | 96.4 | –
Cc1ccc2[nH]c3c(c2c1)CCN(C=O)C31CCN(Cc2ccc(OC(F)F)cc2)CC1 [CBK040438] | 101 | –
CN(C)C(C)(C)COc1ncccc1OCCO [CBK042184] | 112 | –
CN1CCC[C@H]1COc1ncccc1OCCO [CBK042185] | 92.6 | –
CN1CCN(c2ccc([N+](=O)[O-])c(NCc3ccccc3)c2)CC1 [CBK042199] | 93.7 | –
O=[N+]([O-])c1ccc(N2CCN(CCO)CC2)cc1NCc1ccc(Cl)cc1 [CBK042201] | 99.6 | –
O=C(CNS(=O)(=O)c1ccc(F)cc1)N1CCOCC1 [CBK042214] | 97.7 | –
O=C(CNS(=O)(=O)c1cc(F)c(Br)cc1F)N1CCOCC1 [CBK042216] | 107 | –
O=C(CNS(=O)(=O)Cc1ccccc1[N+](=O)[O-])N1CCOCC1 [CBK042220] | 82.7 | –
O=C(CNS(=O)(=O)c1ccc(Oc2ccccc2)cc1)Nc1ccc(F)cc1 [CBK042229] | 104 | –
Cc1ccc(S(=O)(=O)Nc2sccc2C(=O)O)cc1[N+](=O)[O-] [CBK042258] | 102 | –
Cc1ccc(S(=O)(=O)Nc2sccc2C(=O)N2CCN(C)CC2)cc1 [CBK042264] | 89.3 | –
CN1CCN(C(=O)c2ccsc2NS(=O)(=O)c2ccc(Oc3ccccc3)cc2)CC1 [CBK042277] | 87 | –
O=C(c1ccsc1NS(=O)(=O)c1cc(Cl)sc1Cl)N1CCOCC1 [CBK042288] | 92.5 | –
Cc1ccc(S(=O)(=O)Nc2sccc2C(=O)Nc2ccc(F)cc2)cc1 [CBK042302] | 98.5 | –
O=C(Nc1ccc(F)cc1)c1ccsc1NS(=O)(=O)Cc1ccccc1[N+](=O)[O-] [CBK042313] | 91.7 | –
CCN(CC)C(=O)c1ccsc1NS(=O)(=O)c1cccc2cccnc12 [CBK042317] | 87.1 | –
CCN(CC)C(=O)c1ccsc1NS(=O)(=O)c1ccc(Br)cc1 [CBK042318] | 93.2 | –
CCCc1ccc(S(=O)(=O)Nc2ccccc2C(=O)O)cc1 [CBK042366] | 72.4 | –
Cc1noc(C)c1S(=O)(=O)Nc1ccccc1C(=O)O [CBK042371] | 89.8 | –
O=C(O)c1ccccc1NS(=O)(=O)Cc1ccccc1[N+](=O)[O-] [CBK042373] | 91.9 | –
Cc1ccc(S(=O)(=O)Nc2ccccc2C(=O)O)cc1[N+](=O)[O-] [CBK042374] | 84.5 | –
CSc1cccc(NC(=O)N2CCN(C(=O)C3CCCO3)CC2)c1 (stereo not shown) [CBK043283] | 100 | –

SMILES | viability at 28.5 h, 10 µM [%] | viability at 28.5 h, 10 µM (bulk resorufin, single well) [%]
O=C(c1ccccc1NS(=O)(=O)c1ccc(Br)cc1)N1CCOCC1 [CBK043340] | 100 | –
COc1cc(NC(=O)NCCc2cccs2)cc(OC)c1OC [CBK043347] | 94.6 | –
O=C(c1ccccc1NS(=O)(=O)c1ccc(C(F)(F)F)cc1[N+](=O)[O-])N1CCOCC1 [CBK043353] | 84.4 | –
CCC(C)(C)c1ccc(S(=O)(=O)N(C)CCC#N)cc1 [CBK043395] | 118 | –
COC(=O)NC(=O)N1CCN(c2c(Cl)cncc2Cl)CC1 [CBK043398] | 108 | –
CCOC(=O)CN(Cc1ccccc1)S(=O)(=O)c1ccc(C(C)C)cc1 [CBK043404] | 103 | –
CCCN(CCC#N)S(=O)(=O)c1ccc(C(C)C)cc1 [CBK043453] | 94.4 | –
Cc1cc(S(=O)(=O)N(CCC#N)Cc2ccccc2)c(C)cc1Cl [CBK043461] | 90.8 | –
CC(C)c1ccc(S(=O)(=O)NCc2c(F)ccc(Cl)c2F)cc1 [CBK043484] | 88.4 | –
CNC(=O)c1ccc(NS(=O)(=O)c2ccc(OC(F)(F)F)cc2)cc1 [CBK043495] | 96.7 | –
O=S(=O)(Nc1ccccc1O)c1ccc(OC(F)(F)F)cc1 [CBK043512] | 80.2 | –
CCC(O)CNS(=O)(=O)c1ccc(OC(F)(F)F)cc1 (stereo not shown) [CBK043557] | 97.9 | –
Cc1ccc(NS(=O)(=O)c2ccc(OC(F)(F)F)cc2)nc1 [CBK043577] | 95.8 | –
O=S(=O)(c1ccc(Br)s1)N1CCC(Cc2ccccc2)CC1 [CBK043580] | 89.7 | –
CC(C)c1ccc(S(=O)(=O)N(C)Cc2cccnc2)cc1 [CBK043582] | 108 | –
CC(NS(=O)(=O)c1cccs1)c1ccccc1 (stereo not shown) [CBK043601] | 114 | –
CC(=O)c1cccc(NS(=O)(=O)c2ccc(OC(F)(F)F)cc2)c1 [CBK043606] | 88.5 | –
Cc1cc(S(=O)(=O)N(CCC#N)c2ccccc2)c(C)cc1Cl [CBK043618] | 85.7 | –
O=S(=O)(CCc1ccccn1)N1CCC(Cc2ccccc2)CC1 [CBK043632] | 107 | –
Fc1ccc2c(ccn2CCCN2CCN(c3ccncc3)CC2)c1 [CBK043645G] | 89.4 | –
O=C(Nc1ccccc1C(F)(F)F)N1CCC2(CC1)OCCO2 [CBK043655] | – | 94.1
CCOC(=O)CN1CCN(C(=O)Nc2ccccc2OC(F)(F)F)CC1 [CBK043656] | 97 | –
CCCNC(=O)NCCc1cccs1 [CBK043675] | 102 | –

SMILES | viability at 28.5 h, 10 µM [%] | viability at 28.5 h, 10 µM (bulk resorufin, single well) [%]
COC(=O)c1cccc(NC(=O)N2CCC3(CC2)OCCO3)c1 [CBK043713] | – | 91.1
N#CC(NS(=O)(=O)c1ccc(OC(F)(F)F)cc1)c1ccccc1 (stereo not shown) [CBK043714] | 97.6 | –
CC(C)(C)c1ccccc1NC(=O)N1CCC2(CC1)OCCO2 [CBK043720] | – | 91.3
CC(=O)NCCNS(=O)(=O)c1ccc(C(C)C)cc1 [CBK043726] | 92.5 | –
CCC(C)(C)c1ccc(S(=O)(=O)Nc2n[nH]cc2Br)cc1 [CBK043734] | 85 | –
N#Cc1ccc(NC(=O)NCCc2cccs2)cc1 [CBK043736] | 115 | –
O=S(=O)(NCc1ccc(C(F)(F)F)cc1)c1cccs1 [CBK043744] | 94.5 | –
CCOC(=O)C1CCN(S(=O)(=O)c2ccc(NC(C)=O)c(Cl)c2)CC1 [CBK043748] | 93.5 | –
O=C(NCCc1cccs1)Nc1ccc(Cl)c(C(F)(F)F)c1 [CBK043775] | 97.6 | –
CCOC(=O)CN1CCN(S(=O)(=O)c2ccc(F)c(Cl)c2)CC1 [CBK043782] | 89.3 | –
O=S(=O)(NCc1ccc(F)cc1Cl)c1ccc(Cl)c(Cl)c1 [CBK043785] | 91 | –
Cc1cc(S(=O)(=O)N(C)CCC#N)c(C)cc1Cl [CBK043787] | 111 | –
O=S(=O)(c1ccc(Cl)c(Cl)c1)N1CCOCC1 [CBK043794] | 90.7 | –
CCN(Cc1ccncc1)S(=O)(=O)c1ccc(Cl)c(Cl)c1 [CBK043818] | 96.2 | –
COCCN(C)S(=O)(=O)c1cc(C)c(Cl)cc1C [CBK043867] | 105 | –
CCc1cc(Br)ccc1S(=O)(=O)Nc1ccccc1O [CBK043877] | 92 | –
O=S(=O)(Nc1cccc2cccnc12)c1cccs1 [CBK043904] | 60.8 | –
CC(C)c1ccccc1NC(=O)NCCc1cccs1 [CBK043938] | 97.9 | –
Cc1cccc(C(C)(C)C)c1NC(=O)N1CCC(Cc2ccccc2)CC1 [CBK043962] | 112 | –
O=C(Nc1ccc2ccccc2c1)N1CCN(C(=O)C2CCCO2)CC1 (stereo not shown) [CBK044043] | 96.6 | –
CC(=O)Nc1ccc(S(=O)(=O)Nc2ccc(CC#N)cc2)cc1Cl [CBK044058] | 87.8 | –
O=S(=O)(NCCc1cccc(C(F)(F)F)c1)c1cccs1 [CBK044068] | 91.1 | –
CC1CN(C2CCN(S(=O)(=O)c3cccs3)CC2)C(=O)O1 (stereo not shown) [CBK044072] | 112 | –

SMILES | viability at 28.5 h, 10 µM [%] | viability at 28.5 h, 10 µM (bulk resorufin, single well) [%]
COC(=O)c1cc(NC(=O)NCCC2=CCCCC2)cc(C(=O)OC)c1 [CBK044120] | 90.9 | –
CCC(C)(C)c1ccc(S(=O)(=O)NCCCN2CCCC2)cc1 [CBK044126] | 95.8 | –
Cc1ccc(NC(=O)NCCC2=CCCCC2)cc1Cl [CBK044135] | 110 | –
CCOC(=O)CN1CCN(C(=O)Nc2ccccc2Br)CC1 [CBK044156] | 103 | –
CCOC(=O)NC(=O)N1CCC(N2C(=O)OCC2(C)C)CC1 [CBK044179] | 90.5 | –
O=C(NCCC1=CCCCC1)Nc1ccc2ccccc2c1 [CBK044195] | 104 | –
Cc1cc(S(=O)(=O)NCC(=O)OC(C)C)c(C)cc1Cl [CBK044196] | 101 | –
Cc1cc(C(=O)N2CCC(N3C(=O)OCC3(C)C)CC2)n(C(C)(C)C)n1 [CBK044233] | 94.4 | –
Cn1nc(C(C)(C)C)cc1C(=O)N1CCC(N2C(=O)OCC2(C)C)CC1 [CBK044234] | 81.5 | –
CC(=O)Nc1ccc(S(=O)(=O)NCCC#N)cc1Cl [CBK044272] | 95.2 | –
O=S(=O)(c1ccc(OC(F)(F)F)cc1)N1CCc2ccccc21 [CBK044279] | 96.7 | –
CCCCCc1ccc(S(=O)(=O)N2CCN(C(=O)C3CCCO3)CC2)cc1 (stereo not shown) [CBK044329] | 101 | –
CCOC(=O)CN1CCN(S(=O)(=O)c2ccc(F)c(F)c2F)CC1 [CBK044345] | 92.4 | –
N#Cc1ccccc1NC(=O)NCCC1=CCCCC1 [CBK044365] | 95.1 | –
O=[N+]([O-])c1cccc(NS(=O)(=O)c2ccc(Cl)c(Cl)c2)c1 [CBK044396] | 78.5 | –
CC(C)c1ccc(S(=O)(=O)NC(C#N)c2ccccc2)cc1 (stereo not shown) [CBK044403] | 101 | –
O=S(=O)(NCCc1ccncc1)c1ccc(Cl)c(Cl)c1 [CBK044438] | 97.9 | –
CC(C)c1ccc(S(=O)(=O)Nc2ccc3[nH]c(C(F)(F)F)nc3c2)cc1 [CBK044470] | 90.3 | –
O=S(=O)(Nc1cccc2ncccc12)c1ccc(OC(F)(F)F)cc1 [CBK044490] | 112 | –
O=S(=O)(c1cccs1)N1CCc2ccccc2C1 [CBK044531] | 113 | –
O=C(NCCc1cccs1)Nc1ccc(F)c(F)c1F [CBK044543] | 96.1 | –
CC(C)c1ccc(S(=O)(=O)Nc2ccc(Br)c(F)c2)cc1 [CBK044556] | 100 | –
